Laboratory results published in patent US8809270B2, “Method for reducing cardiovascular morbidity and mortality in prediaetic patients and patients with type 2 diabetes” (priority 2003, dated 2014).

Tests used:
[1] = tested on: diabetic patients hospitalized with acute MI; settings: IV insulin-glucose infusion in-hospital followed by intensive chronic outpatient insulin, versus standard treatment; cited from earlier work
[2] = tested on: patients with various levels of fasting hypertriglyceridemia; assay: Two multicenter placebo-controlled AMARYL registration studies: lipid data; format: in vivo, human; parameters: Triglycerides % reduction from baseline / Non-HDL Cholesterol Total % reduction from baseline: concentration or dose not given beside the values; Triglycerides Baseline / Triglycerides Endpoint: unit not given beside the values
From the text: There is evidence from the literature that use of sulfonylurea (SU) as initial drug treatment of the type 2 patient with DDL exerts a weaker effect on reduction of hypertriglyceridemia, or on increasing HDL-C, than is seen with insulin, and/or that the effects are less durable. In order to compare the effects of Lantus LANTUS (insulin glargine) on fasting TG and non-HDL-C levels with oral agents from the sulfonylurea class, the glimepiride (Amaryl® AMARYL) database at Aventis was examined.

IGT = settings: statistically significant; cited from earlier work
[3] = after injection; cited from earlier work
[4] = tested on: type 2 diabetic patients already treated with other oral antidiabetic drugs; assay: Study 4014: lipid data, LANTUS versus rosiglitazone; format: in vivo, human; parameters: Triglycerides % reduction from baseline / Triglycerides % reduction from baseline, LANTUS-AVANDIA / Non-HDL Cholesterol Total % reduction from baseline: concentration or dose not given beside the values; Triglycerides Baseline / Triglycerides Endpoint: unit not given beside the values
abnormalities of DDL = settings: in vivo; cited from earlier work

insulin: IV insulin-glucose infusion followed by intensive chronic outpatient treatment with insulin (DIGAMI study)
reduction of all-cause mortality [1]: 28%

CCC1=C(C)CN(C(=O)NCCc2ccc(S(=O)(=O)NC(=O)N[C@H]3CC[C@H](C)CC3)cc2)C1=O [AMARYL, glimepiride]
HDL Baseline ([2]; TG baseline range 200-500): 38
HDL Endpoint ([2]; TG baseline range 200-500): 39
Non-HDL Cholesterol Total % reduction from baseline ([2]; TG baseline range 200-500): 3%
Non-HDL Cholesterol Total Baseline ([2]; TG baseline range 200-500): 197
Non-HDL Cholesterol Total Endpoint ([2]; TG baseline range 200-500): 191
Triglycerides % reduction from baseline ([2]; TG baseline range 200-500): 12%
Triglycerides Baseline ([2]; TG baseline range 200-500): 299
Triglycerides Endpoint ([2]; TG baseline range 200-500): 265
HDL Baseline ([2]; TG baseline range 300-500): 36
HDL Endpoint ([2]; TG baseline range 300-500): 37
Non-HDL Cholesterol Total % reduction from baseline ([2]; TG baseline range 300-500): 3%
Non-HDL Cholesterol Total Baseline ([2]; TG baseline range 300-500): 203
Non-HDL Cholesterol Total Endpoint ([2]; TG baseline range 300-500): 198
Triglycerides % reduction from baseline ([2]; TG baseline range 300-500): 18%
Triglycerides Baseline ([2]; TG baseline range 300-500): 390
Triglycerides Endpoint ([2]; TG baseline range 300-500): 321
HDL Baseline ([2]; TG baseline range 300-1000): 36
HDL Endpoint ([2]; TG baseline range 300-1000): 37
Non-HDL Cholesterol Total % reduction from baseline ([2]; TG baseline range 300-1000): 5%
Non-HDL Cholesterol Total Baseline ([2]; TG baseline range 300-1000): 209
Non-HDL Cholesterol Total Endpoint ([2]; TG baseline range 300-1000): 198
Triglycerides % reduction from baseline ([2]; TG baseline range 300-1000): 23%
Triglycerides Baseline ([2]; TG baseline range 300-1000): 459
Triglycerides Endpoint ([2]; TG baseline range 300-1000): 350
HDL Baseline ([2]; TG baseline range 500-1000): 37
HDL Endpoint ([2]; TG baseline range 500-1000): 39
Non-HDL Cholesterol Total % reduction from baseline ([2]; TG baseline range 500-1000): 10%
Non-HDL Cholesterol Total Baseline ([2]; TG baseline range 500-1000): 224
Non-HDL Cholesterol Total Endpoint ([2]; TG baseline range 500-1000): 200
Triglycerides % reduction from baseline ([2]; TG baseline range 500-1000): 33%
Triglycerides Baseline ([2]; TG baseline range 500-1000): 662
Triglycerides Endpoint ([2]; TG baseline range 500-1000): 445
LDL Baseline ([2]; TG baseline range All): 142
LDL Endpoint ([2]; TG baseline range All): 140

CN(C)C(=N)N=C(N)N [Metformin]
reduction in the rate of progression to type 2 DM (IGT): 31%

NPH insulin: a moderate- to long-acting insulin with a pronounced peak in plasma activity
time of pronounced peak in plasma activity / peak effect after injection [3]: 3 to 6 h

CN(CCOc1ccc(CC2SC(=O)NC2=O)cc1)c1ccccn1 (stereo not shown) [AVANDIA, rosiglitazone]
HDL Baseline ([4]; TG baseline range 200-500): 38
HDL Endpoint ([4]; TG baseline range 200-500): 40
LDL Baseline ([4]; TG baseline range 200-500): 99
LDL Endpoint ([4]; TG baseline range 200-500): 129
Non-HDL Cholesterol Total Endpoint ([4]; TG baseline range 200-500): 59
Triglycerides % reduction from baseline ([4]; TG baseline range 200-500): 0.1%
Triglycerides Baseline ([4]; TG baseline range 200-500): 294
Triglycerides Endpoint ([4]; TG baseline range 200-500): 291
HDL Baseline ([4]; TG baseline range 300-500): 38
HDL Endpoint ([4]; TG baseline range 300-500): 41
Non-HDL Cholesterol Total % reduction from baseline ([4]; TG baseline range 300-500): −17%
Non-HDL Cholesterol Total Baseline ([4]; TG baseline range 300-500): 177
Non-HDL Cholesterol Total Endpoint ([4]; TG baseline range 300-500): 207
Triglycerides % reduction from baseline ([4]; TG baseline range 300-500): 9%
Triglycerides Baseline ([4]; TG baseline range 300-500): 376
Triglycerides Endpoint ([4]; TG baseline range 300-500): 341
HDL Baseline ([4]; TG baseline range 500-1000): 39
HDL Endpoint ([4]; TG baseline range 500-1000): 38
Non-HDL Cholesterol Total Baseline ([4]; TG baseline range 500-1000): 231
Non-HDL Cholesterol Total Endpoint ([4]; TG baseline range 500-1000): 261
Triglycerides Baseline ([4]; TG baseline range 500-1000): 572
Triglycerides Endpoint ([4]; TG baseline range 500-1000): 649
effect on DDL parameters compared with LANTUS ([4]; in vivo): significantly inferior
effects on the abnormalities of DDL (abnormalities of DDL): almost no effect
